Assay results taken from ChEMBL document CHEMBL1201862, “PubChem BioAssay data set” (2004).
“And” between values parts separate entries of the source, which are not always exact repeats. Equal values may be shown once.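 Each compound was tested at five concentrations against cells in 96-well plates for 48 hours. GI50 = concentration required for 50% inhibition of growth.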 The source made the active and inactive calls. No stated cut-off is given here; in the data, active = GI50 up to about 1.1 µM and inactive = higher.

How the values were obtained:
Assay in all cases: NCI tumour cell line growth inhibition, 48 h
EKVX = test system: EKVX
HCT-15 = test system: HCT-15
K562 = test system: K562
MOLT-4 = test system: MOLT-4
SN12C = test system: SN12C
SR = test system: SR
T47D = test system: T47D
786-0 = test system: 786-0
A498 = test system: A498
A549 = test system: A549
ACHN = test system: ACHN
CCRF-CEM = test system: CCRF-CEM
COLO 205 = test system: COLO 205
DU-145 = test system: DU-145
HCT-116 = test system: HCT-116
HOP-62 = test system: HOP-62
HT-29 = test system: HT-29
Hs-578T = test system: Hs-578T
IGROV-1 = test system: IGROV-1
KM12 = test system: KM12
LOX IMVI = test system: LOX IMVI
M14 = test system: M14
MCF7 = test system: MCF7
MDA-MB-231 = test system: MDA-MB-231
MDA-MB-435 = test system: MDA-MB-435
MDA-N = test system: MDA-N
Malme-3M = test system: Malme-3M
NCI-H226 = test system: NCI-H226
NCI-H23 = test system: NCI-H23
NCI/ADR-RES = test system: NCI/ADR-RES
OVCAR-3 = test system: OVCAR-3
OVCAR-4 = test system: OVCAR-4
OVCAR-5 = test system: OVCAR-5
OVCAR-8 = test system: OVCAR-8
PC-3 = test system: PC-3
RPMI-8226 = test system: RPMI-8226
SF-268 = test system: SF-268
SF-295 = test system: SF-295
SK-MEL-28 = test system: SK-MEL-28
SK-MEL-2 = test system: SK-MEL-2
SK-MEL-5 = test system: SK-MEL-5
SK-OV-3 = test system: SK-OV-3
SNB-19 = test system: SNB-19
SNB-75 = test system: SNB-75
SW-620 = test system: SW-620
TK-10 = test system: TK-10
U-251 = test system: U-251
UACC-257 = test system: UACC-257
UACC-62 = test system: UACC-62
UO-31 = test system: UO-31
CAKI-1 = test system: CAKI-1
HCC 2998 = test system: HCC 2998
HL-60 = test system: HL-60
RXF 393 = test system: RXF 393
NCI-H460 = test system: NCI-H460
NCI-H522 = test system: NCI-H522
SF-539 = test system: SF-539

COc1ccc(C2c3c(-c4ccccc4)nn(-c4ccccc4)c3Oc3ncn4nc(CC#N)nc4c32)cc1OC (centres undefined)
GI50 (EKVX): 7.89 µM (inactive) | GI50 (HCT-15): 14 µM and 20.3 µM | GI50 (K562): 22.6 µM (inactive) and > 23.7 µM (inactive) | GI50 (MOLT-4): > 100 µM (inactive) | GI50 (SN12C): 15 µM (inactive) and > 20.1 µM (inactive) | GI50 (SR): 5.57 µM (inactive) | GI50 (T47D): 10.1 µM (inactive)

CCOC(OCC)[C@H](N)[C@@H](O)[C@@H](O)[C@H]1COC(C)(C)O1
GI50 (786-0): > 100 µM (inactive) | GI50 (A498): > 100 µM (inactive) | GI50 (A549): > 100 µM (inactive) | GI50 (ACHN): > 100 µM (inactive) | GI50 (CCRF-CEM): > 100 µM (inactive) | GI50 (COLO 205): > 100 µM (inactive) | GI50 (DU-145): > 100 µM (inactive) | GI50 (EKVX): > 100 µM (inactive) | GI50 (HCT-116): > 100 µM (inactive) | GI50 (HCT-15): > 100 µM | GI50 (HOP-62): > 100 µM (inactive) | GI50 (HT-29): > 100 µM (inactive) | GI50 (Hs-578T): > 100 µM (inactive) | GI50 (IGROV-1): > 100 µM (inactive) | GI50 (K562): > 100 µM (inactive) | GI50 (KM12): > 100 µM (inactive) | GI50 (LOX IMVI): > 100 µM (inactive) | GI50 (M14): > 100 µM (inactive) | GI50 (MCF7): > 100 µM (inactive) | GI50 (MDA-MB-231): > 100 µM (inactive) | GI50 (MDA-MB-435): > 100 µM (inactive) | GI50 (MDA-N): > 100 µM (inactive) | GI50 (MOLT-4): > 100 µM (inactive) | GI50 (Malme-3M): > 100 µM (inactive) | GI50 (NCI-H226): > 100 µM (inactive) | GI50 (NCI-H23): > 100 µM (inactive) | GI50 (NCI/ADR-RES): > 100 µM (inactive) | GI50 (OVCAR-3): > 100 µM (inactive) | GI50 (OVCAR-4): > 100 µM (inactive) | GI50 (OVCAR-5): > 100 µM (inactive) | GI50 (OVCAR-8): > 100 µM (inactive) | GI50 (PC-3): > 100 µM (inactive) | GI50 (RPMI-8226): > 100 µM (inactive) | GI50 (SF-268): > 100 µM (inactive) | GI50 (SF-295): > 100 µM (inactive) | GI50 (SK-MEL-28): > 100 µM (inactive) | GI50 (SK-MEL-2): > 100 µM (inactive) | GI50 (SK-MEL-5): > 100 µM (inactive) | GI50 (SK-OV-3): > 100 µM (inactive) | GI50 (SN12C): > 100 µM (inactive) | GI50 (SNB-19): > 100 µM (inactive) | GI50 (SNB-75): > 100 µM (inactive) | GI50 (SR): > 100 µM (inactive) | GI50 (SW-620): > 100 µM (inactive) | GI50 (TK-10): > 100 µM (inactive) | GI50 (U-251): > 100 µM (inactive) | GI50 (UACC-257): > 100 µM (inactive) | GI50 (UACC-62): > 100 µM (inactive) | GI50 (UO-31): > 100 µM (inactive)

CC1OC(c2ccc3c(OCc4ccccc4)cccc3c2O)CC(OCc2ccccc2)[C@H]1OCc1ccccc1 (some centres undefined)
GI50 (786-0): > 10 µM (inactive) | GI50 (A549): > 10 µM (inactive) | GI50 (CAKI-1): > 10 µM (inactive) | GI50 (CCRF-CEM): > 10 µM (inactive) | GI50 (COLO 205): > 10 µM (inactive) | GI50 (DU-145): > 10 µM (inactive) | GI50 (EKVX): > 10 µM (inactive) | GI50 (HCC 2998): > 10 µM (inactive) | GI50 (HCT-15): > 10 µM | GI50 (HL-60): > 10 µM (inactive) | GI50 (HOP-62): > 10 µM (inactive) | GI50 (HT-29): > 10 µM (inactive) | GI50 (IGROV-1): > 10 µM (inactive) | GI50 (K562): > 10 µM (inactive) | GI50 (KM12): > 10 µM (inactive) | GI50 (M14): > 10 µM (inactive) | GI50 (MCF7): > 10 µM (inactive) | GI50 (MDA-MB-231): > 10 µM (inactive) | GI50 (MDA-N): > 10 µM (inactive) | GI50 (MOLT-4): > 10 µM (inactive) | GI50 (Malme-3M): > 10 µM (inactive) | GI50 (NCI-H23): > 10 µM (inactive) | GI50 (OVCAR-8): > 10 µM (inactive) | GI50 (PC-3): > 10 µM (inactive) | GI50 (RPMI-8226): > 10 µM (inactive) | GI50 (RXF 393): > 10 µM (inactive) | GI50 (SF-268): > 10 µM (inactive) | GI50 (SF-295): > 10 µM (inactive) | GI50 (SK-MEL-28): > 10 µM (inactive) | GI50 (SK-MEL-5): > 10 µM (inactive) | GI50 (SK-OV-3): > 10 µM (inactive) | GI50 (SN12C): > 10 µM (inactive) | GI50 (SNB-75): > 10 µM (inactive) | GI50 (SW-620): > 10 µM (inactive) | GI50 (T47D): > 10 µM (inactive) | GI50 (TK-10): > 10 µM (inactive) | GI50 (UACC-257): > 10 µM (inactive) | GI50 (UACC-62): > 10 µM (inactive)

Cc1ncc([N+](=O)[O-])n1CC(O)Cn1cnc([N+](=O)[O-])n1 (centres undefined)
GI50 (786-0): > 100 µM (inactive) | GI50 (A498): 2.84 µM (inactive) | GI50 (A549): > 100 µM (inactive) | GI50 (ACHN): > 100 µM (inactive) | GI50 (CCRF-CEM): > 100 µM (inactive) | GI50 (EKVX): > 100 µM (inactive) | GI50 (HCC 2998): > 100 µM (inactive) | GI50 (HCT-116): > 100 µM (inactive) | GI50 (HCT-15): > 100 µM | GI50 (HL-60): 64.1 µM (inactive) | GI50 (HOP-62): > 100 µM (inactive) | GI50 (HT-29): > 100 µM (inactive) | GI50 (Hs-578T): > 100 µM (inactive) | GI50 (K562): > 100 µM (inactive) | GI50 (KM12): > 100 µM (inactive) | GI50 (MCF7): > 100 µM (inactive) | GI50 (MOLT-4): > 100 µM (inactive) | GI50 (Malme-3M): 55.1 µM (inactive) | GI50 (NCI-H226): > 100 µM (inactive) | GI50 (NCI-H23): > 100 µM (inactive) | GI50 (NCI-H460): > 100 µM (inactive) | GI50 (NCI-H522): > 100 µM (inactive) | GI50 (OVCAR-3): > 100 µM (inactive) | GI50 (OVCAR-5): > 100 µM (inactive) | GI50 (OVCAR-8): > 100 µM (inactive) | GI50 (PC-3): > 100 µM (inactive) | GI50 (RPMI-8226): > 100 µM (inactive) | GI50 (SF-268): > 100 µM (inactive) | GI50 (SF-295): > 100 µM (inactive) | GI50 (SF-539): > 100 µM (inactive) | GI50 (SK-MEL-28): > 100 µM (inactive) | GI50 (SK-MEL-2): > 100 µM (inactive) | GI50 (SK-MEL-5): > 100 µM (inactive) | GI50 (SN12C): > 100 µM (inactive) | GI50 (SNB-75): > 100 µM (inactive) | GI50 (SR): > 100 µM (inactive) | GI50 (SW-620): > 100 µM (inactive) | GI50 (TK-10): > 10 µM (inactive) | GI50 (U-251): > 100 µM (inactive) | GI50 (UACC-257): > 100 µM (inactive)

O=C(CCCn1cnc([N+](=O)[O-])n1)NCCCn1ccnc1[N+](=O)[O-]
GI50 (786-0): > 100 µM (inactive) | GI50 (A498): 9.35 µM (inactive) | GI50 (A549): > 100 µM (inactive) | GI50 (ACHN): > 100 µM (inactive) | GI50 (CCRF-CEM): > 100 µM (inactive) | GI50 (EKVX): > 100 µM (inactive) | GI50 (HCC 2998): > 100 µM (inactive) | GI50 (HCT-116): > 100 µM (inactive) | GI50 (HCT-15): > 100 µM | GI50 (HL-60): 78.9 µM (inactive) | GI50 (HOP-62): > 100 µM (inactive) | GI50 (HT-29): > 100 µM (inactive) | GI50 (Hs-578T): > 100 µM (inactive) | GI50 (K562): > 100 µM (inactive) | GI50 (KM12): > 100 µM (inactive) | GI50 (MCF7): > 100 µM (inactive) | GI50 (MOLT-4): > 100 µM (inactive) | GI50 (Malme-3M): 83.2 µM (inactive) | GI50 (NCI-H226): > 100 µM (inactive) | GI50 (NCI-H23): > 100 µM (inactive) | GI50 (NCI-H460): > 100 µM (inactive) | GI50 (NCI-H522): > 100 µM (inactive) | GI50 (OVCAR-3): > 100 µM (inactive) | GI50 (OVCAR-5): > 100 µM (inactive) | GI50 (OVCAR-8): > 100 µM (inactive) | GI50 (PC-3): > 100 µM (inactive) | GI50 (RPMI-8226): > 100 µM (inactive) | GI50 (SF-268): > 100 µM (inactive) | GI50 (SF-295): > 100 µM (inactive) | GI50 (SF-539): > 100 µM (inactive) | GI50 (SK-MEL-28): > 100 µM (inactive) | GI50 (SK-MEL-2): 32.4 µM (inactive) | GI50 (SK-MEL-5): 61.8 µM (inactive) | GI50 (SN12C): > 100 µM (inactive) | GI50 (SNB-75): > 100 µM (inactive) | GI50 (SR): > 100 µM (inactive) | GI50 (SW-620): 68.2 µM (inactive) | GI50 (TK-10): 99.8 µM (inactive) | GI50 (U-251): > 100 µM (inactive) | GI50 (UACC-257): > 100 µM (inactive)
